# Experimental data as given in patent publication US20130089869A1, “Methods For and Uses of Mechanical Stiffness Profiling of Cancer Cells” (DUKE UNIVERSITY, priority 2011, published 2013).
# Assays:
# Type in all cases: cell-based, Human
# IGROV [1] = test: Transwell migration assay, IGROV cells; conditions: blebbistatin 100 μM in top chamber, vs untreated
# Protocol: (§1) Cancer cells were seeded at a cell density of 25,000-70,000 on either Matrigel coated or uncoated filters and allowed to invade for 18-24 hours towards 10% FBS in the lower chamber. Cells invading and migrating through the Matrigel layer were visualized and counted as described^9. Percent cell migration or invasion was determined as the fraction of total cells that invaded through the filter. Blebbistatin (100 μM)^10 where used, was added to the top chamber of the transwell and migration and invasion allowed to proceed. Each assay was set up in duplicate, and each experiment was conducted at least 3 times with 4 random fields from a 10× magnification analyzed for each membrane.
# IGROV [2] = test: Matrigel invasion assay, IGROV cells; conditions: blebbistatin 100 μM in top chamber, 18-24 hours, vs untreated
# Protocol: as §1
# IGROV [3] = test: Immunofluorescence of cortical pMLC localization, IGROV cells; conditions: blebbistatin
# Protocol: Immunoflourescence was performed essentially as described previously^9 and images were obtained using a Nikon inverted microscope.
# Ovca429TβRIII cells [4] = test: Magnetic tweezers assay (3DFM) of cell stiffness, Ovca429TβRIII cells; conditions: Ovca429TβRIII cells treated with blebbistatin
# Protocol: (§2) The Three Dimensional Force Microscope (3DFM)^11 was used for applying controlled and precise 60-100 pN local force (FIG. 6) on 2.8 micron magnetic beads (DYNAL Biotech, Oslo, Norway) coated with fibronectin (Sigma Aldrich, St. Louis, Mo.). Briefly, cells were plated on coverslips followed by addition of the beads. Cells and beads were incubated for 30 minutes followed by force application and resultant bead displacements were recorded and analyzed. The displacement of the beads was recorded with high-speed video camera (Pulnix, JAI, Ca) and tracked using Video Spot Tracker (http://cismm.cs.unc.edu). The mean creep compliance was calculated from the tracked displacements as described. Spring constants were derived by fitting the compliance curves to a Jeffrey's model for viscoelastic liquids (FIG. 6). […]
# (§3) To further examine the relationship between cancer cell deformability and invasive potential, the effective shear modulus (here on referred to as the stiffness, k), of the cell was calculated by fitting a modified Kelvin Voigt model^12 to the compliance using a least squares fit (see FIG. 6). […] In addition, the variability in stiffness correlates directly with a specific measure of metastatic progression as determined using in vitro three-dimensional invasion assays.
# Ovca429TβRIII cells [5] = test: Matrigel invasion assay, Ovca429TβRIII cells; conditions: Ovca429TβRIII cells treated with blebbistatin, vs untreated
# Protocol: as §1
# IGROV [6] = test: Magnetic tweezers assay (3DFM) of cell stiffness, IGROV cells; conditions: blebbistatin 100 μm added 30 mins before beads, vs untreated
# Protocol: as §2, §3
# IGROV [7] = test: Viability of IGROV cells under blebbistatin; conditions: concentration that disrupted cortical pMLC localization
smiles,measurement,setting,value
Cc1ccc2c(c1)C(=O)C1(O)CCN(c3ccccc3)C1=N2 (centres unmarked) [Blebbistatin],increase of cell migration,IGROV [1],4 fold
same,increase of cell invasion,IGROV [2],2.5 fold
same,cortical pMLC localization,IGROV [3],disrupted cortical pMLC localization
same,stiffness K (spring constant),Ovca429TβRIII cells [4],1.48 Pa
same,decrease of stiffness,Ovca429TβRIII cells [4]; vs untreated,two fold
same,increase of invasiveness,Ovca429TβRIII cells [5],four fold
same,decrease of cell stiffness,IGROV [6],2 fold
same,effect on viability,IGROV [7],did not affect viability
